According to patent US20240300945A1, “CLY SERIES COMPOUND, PREPARATION METHOD THEREFOR AND USE THEREOF IN PREPARATION OF DRUGS” (NANJING WELLBEST PHARMACEUTICAL CO., LTD, priority 2021, published 2024):
Marks after values point to notes of the source that are not given here.

Experiments:
rat hair loss model = assay: Rat hair loss (androgenic alopecia) model: hair length; type: in vivo, Wistar rats; settings: for 15-day hair length / 30-day hair length / 45-day hair length / 60-day hair length: rat AGA model; for adverse reactions: rat hair loss model, external use and system application, 60 days
From the text: (1) Compound CLY-1, CLY-2, CLY-3, CLY-4, CLY-5, CLY-8, CLY-11, CLY-19, CLY-36, CLY-39 tincture preparation method: 75% ethanol was mixed with appropriate amount of above compounds to prepare a tincture of different concentrations.
(2) Positive treatment drug: 5% minoxidil tincture (trade name: Mandi, Zhejiang Wanma Pharmaceutical Co., Ltd.).
(§1) Wistar rats were, according to weights, randomly divided into the negative control group (75% ethanol for external use), model group (75% ethanol for external use), positive control group (external 5% minoxidil tincture), CLY-1 external treatment group (external 5% CLY-1 tincture), CLY-2 external treatment group (external 5% CLY-2 tincture), CLY-3 external treatment group (external 5% CLY-3 tincture), CLY-4 external treatment group (external 5% CLY-4 tincture), and CLY-5 external treatment group (external 5% CLY-5 tincture) according to their body weight CLY-8 external treatment group (external 5% CLY-8 tincture), CLY-11 external treatment group (external 5% CLY-11 tincture), CLY-19 external treatment group (external 5% CLY-19 tincture), CLY-36 external treatment group (external 5% CLY-36 tincture), CLY-39 external treatment group (external 5% CLY-39 tincture), CLY-1 intravenous injection group (2 mg/kg·d), CLY-3 intravenous injection group (2 mg/kg·d), CLY-4 intravenous injection group (2 mg/kg·d) CLY-5 intravenous injection group (2 mg/kg·d), CLY-8 intravenous injection group (2 mg/kg·d), CLY-11 intravenous injection group (2 mg/kg·d), CLY-19 intravenous injection group (2 mg/kg·d), CLY-36 intravenous injection group (2 mg/kg·d), and CLY-39 intravenous injection group (2 mg/kg·d), with 10 rats in each group. Before the experiment, an area of 4 cm×5 cm was selected on each rat on the back of the neck to remove hair as the observation area. In addition to the negative control group, rats were subcutaneously injected with testosterone propionate injection [5 ml/(kg·d)] once a day for 60 days to establish the androgenic alopecia (AGA) model. […] At the same time, the drug was applied to the observation area on the back of the rats in the corresponding drug group at the rate of 2 mL/(one time), twice a day, at an interval of 8 hours; Intravenous administration once a day. The negative control group and the model control group were smeared with 75% ethanol solution, 2 mL/(one rat per time), twice a day, for 60 days.
Took 10 hairs from the observation area on the back of each rat every 15 days after administration, and measured the hair length with a vernier caliper. After 60 days of administration, the skin of the experimental observation area was taken for routine tissue dehydration, paraffin embedding, HE staining, and light microscopy to observe the histopathological changes of the rat skin hair follicles and sebaceous glands. Semi-quantitative analysis was performed for each group. The grading criteria are as follows: the normal structure of dermal tissue cells, subcutaneous hair follicles, and sebaceous glands is marked as […]: no hyperplasia of dermal tissue is found, the lesions of hair follicles and sebaceous glands are limited, and no inflammation is found under the skin is marked as “+”: no obvious hyperplasia of dermal tissue is found, and the follicles are obviously cystic. No obvious hyperplasia of sebaceous glands is found, and no inflammation is found under the skin is marked as “+”: the dermal tissue has segmental hyperplasia, which is not obvious, A small number of hair follicles have cystic changes, and the sebaceous glands have mild hyperplasia and hypertrophy. There is no obvious inflammation under the skin, which is marked as “++”: the dermal tissue cells of the skin have different degrees of segmental hyperplasia, and some hair follicles have cystic changes, showing uneven size of hair follicles, and no cells around. The sebaceous glands have hyperplasia, and the nuclei in the proliferative glands are few. […]

[1] = test system: skin hair follicles and sebaceous glands of rats; assay: Rat hair loss model: histopathological grading of skin hair follicles and sebaceous glands; type: in vivo, Wistar rats; settings: 60 days, 10 rats per group; for number of rats with hair follicle and sebaceous gland grade +++: grade +++ (most severe); for number of rats with hair follicle and sebaceous gland grade ±: grade ± (lesions limited); for number of rats with hair follicle and sebaceous gland grade −: grade − (normal structure)
From the text: as §1
Took 10 hairs from the observation area on the back of each rat every 15 days after administration, and measured the hair length with a vernier caliper. After 60 days of administration, the skin of the experimental observation area was taken for routine tissue dehydration, paraffin embedding, HE staining, and light microscopy to observe the histopathological changes of the rat skin hair follicles and sebaceous glands. Semi-quantitative analysis was performed for each group. The grading criteria are as follows: the normal structure of dermal tissue cells, subcutaneous hair follicles, and sebaceous glands is marked as […]: no hyperplasia of dermal tissue is found, the lesions of hair follicles and sebaceous glands are limited, and no inflammation is found under the skin is marked as “+”: no obvious hyperplasia of dermal tissue is found, and the follicles are obviously cystic. No obvious hyperplasia of sebaceous glands is found, and no inflammation is found under the skin is marked as “+”: the dermal tissue has segmental hyperplasia, which is not obvious, A small number of hair follicles have cystic changes, and the sebaceous glands have mild hyperplasia and hypertrophy. There is no obvious inflammation under the skin, which is marked as “++”: the dermal tissue cells of the skin have different degrees of segmental hyperplasia, and some hair follicles have cystic changes, showing uneven size of hair follicles, and no cells around. The sebaceous glands have hyperplasia, and the nuclei in the proliferative glands are few. A few rats have mild inflammatory hyperplasia under the skin, which is marked as “+++”.

[2] = external 5% tincture twice a day
[3] = intravenous injection 2 mg/kg·d

SMILES | 15-day hair length (rat hair loss model; [2]) | 30-day hair length (rat hair loss model; [2]) | 45-day hair length (rat hair loss model; [2]) | 60-day hair length (rat hair loss model; [2]) | 15-day hair length (rat hair loss model; [3]) | 30-day hair length (rat hair loss model; [3]) | 45-day hair length (rat hair loss model; [3]) | 60-day hair length (rat hair loss model; [3]) | adverse reactions (rat hair loss model) | number of rats with hair follicle and sebaceous gland grade +++ ([1]; external 5% tincture) | number of rats with hair follicle and sebaceous gland grade +++ ([1]; intravenous 2 mg/kg·d) | number of rats with hair follicle and sebaceous gland grade ++ ([1]; external 5% tincture) | number of rats with hair follicle and sebaceous gland grade ++ ([1]; intravenous 2 mg/kg·d) | number of rats with hair follicle and sebaceous gland grade + ([1]; external 5% tincture) | number of rats with hair follicle and sebaceous gland grade + ([1]; intravenous 2 mg/kg·d) | number of rats with hair follicle and sebaceous gland grade ± ([1]; external 5% tincture) | number of rats with hair follicle and sebaceous gland grade ± ([1]; intravenous 2 mg/kg·d) | number of rats with hair follicle and sebaceous gland grade − ([1]; external 5% tincture) | number of rats with hair follicle and sebaceous gland grade − ([1]; intravenous 2 mg/kg·d)
COC1CCCC(N(C(=O)c2ccc(-n3nnc4cccnc43)cc2)c2ncccc2Cl)C1 (stereo not shown) [CLY-5] | 9.2* mm | 10.2* mm | 15.5* mm | 18.9* mm | 7.8* mm | 9.3* mm | 13.7* mm | 16.4* mm | no obvious adverse reactions | 0 | 0 | 0 | 0 | 4 | 2 | 6 | 8 | 0 | 0
CCN1CCC[C@@H](N(C(=O)c2ccc(-n3nnc4cccnc43)cc2)c2ncccc2Cl)C1 [CLY-2, (R)-4-(3H-[1,2,3]triazolo[4,5-b]pyridin-3-yl)-N-(3-chloropyridin-2-yl)-N-(1-ethylpiperidin-3-yl)benzamide] | 9.1* mm | 10.1* mm | 15.3* mm | 18.9* mm | 9.2* mm | 10.3* mm | 15.6* mm | 19.1* mm | no obvious adverse reactions | 0 | 0 | 1 | 0 | 3 | 3 | 6 | 7 | 0 | 0
CN1CCC[C@@H](N(C(=O)c2ccc(-n3nnc4cccnc43)cc2)c2ncccc2Cl)C1 [CLY-1, (R)-4-(3H-[1,2,3]triazolo[4,5-b]pyridin-3-yl)-N-(3-chloropyridin-2-yl)-N-(1-methylpiperidin-3-yl)benzamide] | 8.3* mm | 9.3* mm | 14.2* mm | 17.6* mm | 8.7* mm | 9.6* mm | 14.6* mm | 17.9* mm | no obvious adverse reactions | 0 | 0 | 1 | 0 | 4 | 4 | 5 | 6 | 0 | 0
CNC1CCCC(N(C(=O)c2ccc(-n3nnc4cccnc43)cc2)c2ncccc2Cl)C1 (stereo not shown) [CLY-3] | 7.5* mm | 8.6* mm | 12.45* mm | 16.3* mm | 7.3* mm | 8.9* mm | 13.9* mm | 16.8* mm | no obvious adverse reactions | 0 | 0 | 1 | 1 | 5 | 4 | 4 | 5 | 0 | 0
